From patent US11110195B2, “Esculentin 1a derivatives and uses thereof” (University of Houston System, priority 2013, dated 2021)
In brackets after ≈: the same amount, converted by molar mass. Read-outs that look alike come from different tables or passages of the source. Residues, ends and D or L forms follow the SMILES beside them.

Experiments:
P. aeruginosa ATCC 27853 = conditions: soluble free form, 1 μM, within 20 minutes in PBS
[1] = test system: Pseudomonas aeruginosa ATCC 19660 induced keratitis; assay: Neutrophil infiltration into cornea by myeloperoxidase (MPO) assay; type: in vivo, C57BL/6 mice
Description: Corneas were harvested 1,3 and 5 days after infection and neutrophil infiltration determined by MPO assay. […] PI=post infection, Pre-trt=pretreatment with Esc-1a(1-21)NH2. *Indicates significant difference, p<0.05, among PBS control and peptide treated groups.
To determine a clinical score, neutrophil infiltration by myeloperoxidase assay (MPO assay) and viable bacterial cell counts in infected and control corneas of C57BL/6 mice with Pseudomonas aeruginosa ATCC 19660 keratitis following pre-treatment and post-infection treatment with Esc-1a(1-21)NH2 up to 5 days post-infection (PI) the following experiment was performed. In these experiments pre-treatment refers to a group of animals where treatment was initiated 24 hrs before infection then continued after infection.
An MPO assay was used to quantitate polymorphonuclear cell numbers in the cornea from both infected corneas (n=2/group/time point) of Esc-1a(1-21)NH2 treated and control (PBS) treated animals. Briefly, corneas were harvested at days 1, 3 and 5 PI. The change in absorbance at 450 nm was monitored for one hour at 15-30 minute intervals. The results were expressed as units of MPO per cornea. One unit of MPO activity is equivalent to 2*10^5 polymorphonuclear cells.
Harvested and pooled corneas (2 mice/group) in 200 μl of sterile PBS/cornea. Placed the harvested corneas on ice until further processing. Homogenized the corneas for 30-45 seconds and briefly sonicated them for 10-20 seconds.
C. Added 10 μl of 0.5% HTAB (hexadecyltrimethylammonium bromide in potassium phosphate buffer 50 mM pH 6) to 90 μl homogenate (*stored the remaining homogenate on ice to obtain recoverable P. aeruginosa counts for viability assay).
D. Sonicated samples 2×5 seconds then freeze thawed three times on liquid nitrogen.
E. Centrifuged at 14000*g at 4° C. for 20 minutes.
F. To 10 ml of phosphate buffer added 0.00167 g 0-dianisidine dihydrochloride and 1.67 μl (0.05%) H2O2. 90 μl of this was added to each well to produce the color reaction (protected the solution from light).
G. Made up standards for MPO using phosphate buffer based on the initial concentration of the MPO. Double diluted 25 μl MPO standard & carry 25 μl over since 10 μl was needed per well (run in duplicate).
H. Added 10 μl of each standard to 96 well plate and 10 μl sample supernatant (in triplicate).
I. Added 90 μl phosphate buffer containing O-d-d and H2O2 to the plate. Popped bubbles and read on spectrophotometer at 450 nm at 3 minutes, 5 minutes, 10 minutes, 15 minutes, 30 minutes, 45 minutes and 60 minutes.
The MPO units per cornea were determined and the mean from 3 independent experiments was plotted (FIG. 6).

HaCaT cells = assay: Wound healing assay, HaCaT cells; type: cell-based, human; conditions: HaCaT monolayer
Experimental: The percentage of cell-covered area at each time point is reported on the y-axis. Control (Ctrl) represents cells not treated with the peptide. All data are the mean of at least three independent experiments ±SEM. […] The optimal concentration allowing gap closure was 0.25 μM.
The experimental procedure is similar to that described in Example 6 with the following two differences: (i) 40,000 cells suspended in DMEM supplemented with 4 mM glutamine and 10% FBS were seeded on each side of the ibidi culture inserts instead of 70,000 cells in KGM-2g as for corneal epithelial cells; (ii) serum-free medium was used in the wound healing assay instead of medium supplemented with 5% FBS as for corneal epithelial cells. […] Overall, the experiments indicate that Esc-1a(1-21)NH2 can stimulate wound closure in different types of mammalian cells but this is with a different kinetic or optimal concentration and thus a stereospecific mechanism involving a direct/indirect activation of different signalling transduction cascades (depending on the selected cell type) likely subtends such events.

[2] = test system: Staphylococcus epidermidis; conditions: Staphylococcus epidermidis n. 21 (326) ME, clinical ocular isolate
Experimental: (§1) To determine the minimum inhibitory concentration (MIC) of Esc-1a(1-21)NH2 that causes total inhibition of microbial growth against Pseudomonas aeruginosa and Staphylococcal strains, the following experiment (using P. aeruginosa ATCC 19660 as an example) was performed. MIC was determined using the 96 well micro-plate dilution assay. The test was performed in triplicate wells and Esc-1a(1-21)NH2 was serially diluted to give concentrations of 0.125 μM to 64 μM.
(§2) Day 1: Picked a colony from a P. aeruginosa ATCC19660 streak plate, inoculated in to nutrient broth and incubated overnight at 37° C. with shaking (250 rpm) Day 2 Steps: Removed 100 μl of the bacterial suspension and inoculated into 50 ml of fresh broth. Incubated for 2.5 hours with vigorous shaking (250 rpm) at 37° C. to achieve mid-log phase growth. Centrifuged the 50 ml culture at 3100 g for 10 minutes; discarded supernatant and resuspended pellet in 2 ml Muller-Hinton broth (MHB). Adjusted the optical density (OD) of the bacterial culture to 0.2 at 620 nm (corresponds to ˜10^7 CFU/ml) and diluted to 2×10^6 CFU/ml using MHB media. Thawed an aliquot of the peptide on ice. Pipetted 90 μl of MHB into wells A1, B1 and C1 and 50 μl of MHB media into A2-C2 through A12-C12. Added 10 μl of Esc-1a(1-21)NH2 into wells A1, B1 and C1 and performed serial twofold dilutions of peptide in a volume of 50 μl from column 1 to column 10 (i.e. transferred 50 μl from A1, B1 and C1 to A2, B2 and C2 and so on till A10-C10). […] Pipetted 50 μl of the diluted P. aeruginosa ATCC 19660 in to each well using a multichannel pipette (final concentration was 1×10^5 bacteria in 100 μl volume). Wrapped the plate using parafilm to prevent evaporation and incubated in a shaker incubator (150 rpm) at 37° C. for 18-24 h.
(§3) Day 3 Steps: Read the plate using the spectrophotometer at 590 nm after examining the plates visually for turbidity. Generated spot plates to check for bacterial growth by plating out the contents of the first 3 wells showing no visible growth of bacteria onto MHA plates. Plated dilutions in duplicate and incubated the plates at 37° C. for 18 hr.
(§4) Day 4: Counted the number of colonies on the agar plates and plotted the data.

Pseudomonas aeruginosa = test system: Pseudomonas aeruginosa
Experimental: as §1, §2, §3, §4

Staphylococcus aureus = Staphylococcus aureus n. 6 ME, clinical ocular isolate
Experimental: as §1, §2, §3, §4

Staphylococcus hominis = Staphylococcus hominis n. 1 ME, clinical ocular isolate
Experimental: as §1, §2, §3, §4

CC[C@H](C)[C@H](NC(=O)CN)C(=O)N[C@@H](Cc1ccccc1)C(=O)N[C@@H](CO)C(=O)N[C@@H](CCCCN)C(=O)N[C@@H](CC(C)C)C(=O)N[C@@H](C)C(=O)NCC(=O)N[C@@H](CCCCN)C(=O)N[C@@H](CCCCN)C(=O)N[C@H](C(=O)N[C@@H](CCCCN)C(=O)N[C@@H](CC(N)=O)C(=O)N[C@@H](CC(C)C)C(=O)N[C@@H](CC(C)C)C(=O)N[C@H](C(=O)N[C@@H](CO)C(=O)NCC(=O)N[C@@H](CC(C)C)C(=O)N[C@@H](CCCCN)C(=O)NCC(N)=O)[C@@H](C)CC)[C@@H](C)CC [Esc-1a(1-21)NH2] (H-GIFSKLAGKKIKNLLISGLKG-NH2; N-terminus assumed)
killing (P. aeruginosa ATCC 27853): ~99.9% | normalized MPO activity per cornea ([1]; pre-treated, day 1 PI): 1.55±0.4 MPO units | normalized MPO activity per cornea ([1]; pre-treated, day 3 PI): 1.66±0.13 MPO units | normalized MPO activity per cornea ([1]; pre-treated, day 5 PI): 1.55±0.28 MPO units | normalized MPO activity per cornea ([1]; treated after infection, day 1 PI): 1.69±0.40 MPO units | normalized MPO activity per cornea ([1]; treated after infection, day 3 PI): 1.84±0.16 MPO units | normalized MPO activity per cornea ([1]; treated after infection, day 5 PI): 1.82±0.42 MPO units | optimal concentration allowing gap closure (HaCaT cells): 0.25 µM | time to coverage of the wound-field (HaCaT cells; bell-shaped dose-response): 9 to 12 h | MIC [2]: 8 µM (≈ 17.5 µg/mL) | MIC values range (Pseudomonas aeruginosa; P. aeruginosa clinical isolates): 2 to 8 µM | MIC (Pseudomonas aeruginosa; Pseudomonas aeruginosa 1 Rm, clinical ocular isolate): 4 µM (≈ 8.74 µg/mL) | MIC (Pseudomonas aeruginosa; Pseudomonas aeruginosa ATCC 19660, reference strain): 16 µM (≈ 35 µg/mL) | MIC (Pseudomonas aeruginosa; Pseudomonas aeruginosa R1, clinical ocular isolate): 2 µM (≈ 4.37 µg/mL) | MIC (Pseudomonas aeruginosa; Pseudomonas aeruginosa n. 2 ME, clinical ocular isolate): 8 µM (≈ 17.5 µg/mL) | MIC (Pseudomonas aeruginosa; Pseudomonas aeruginosa n. 3, clinical ocular isolate): 8 µM (≈ 17.5 µg/mL) | MIC (Staphylococcus aureus): 64 µM (≈ 140 µg/mL) | MIC (Staphylococcus hominis): 1 µM (≈ 2.18 µg/mL)
